Results as given in paper PMC8480901 (PLoS ONE, 2021).
“And” between values parts separate entries of the source, which are not always exact repeats. Equal values may be shown once.

Test system: J774.2 mouse macrophages
Assay: LPS-induced cytokine and chemokine levels in J774.2 mouse macrophage cell supernatant (ELISA)
Assay type: cell-based
Settings: for CXCL1 % reduction / CXCL1 [pg/mL] Mean / CXCL2 % reduction / CXCL2 [pg/mL] Mean / MMP9 % reduction / MMP9 [pg/mL] Mean: J774.2 cells; for CXCL1 % reduction / CXCL1 [pg/mL] Mean / CXCL2 % reduction / CXCL2 [pg/mL] Mean / MMP9 % reduction / MMP9 [pg/mL] Mean / CCl2, % reduction / CCl2, Mean / GM-CSF % reduction / GM-CSF Mean / IL-1β % reduction / IL-1β Mean / IL-6 % reduction / IL-6 Mean / TNF-α % reduction / TNF-α Mean / CCl2 / CXCL1 / GM-CSF / IL-1β / IL-6 / TNF-α: LPS; for CCl2, % reduction / CCl2, Mean / GM-CSF % reduction / GM-CSF Mean / IL-1β % reduction / IL-1β Mean / IL-6 % reduction / IL-6 Mean / TNF-α % reduction / TNF-α Mean / CCl2 / CXCL1 / GM-CSF / IL-1β / IL-6 / TNF-α: J774.2 supernatant; for CCl2 / CXCL1 / GM-CSF / IL-1β / IL-6 / TNF-α: individual replicate

## C=C[C@]1(C)C[C@@H](OC(=O)CS[C@@H]2CC[C@@H](N)C[C@H]2O)[C@]2(C)[C@H](C)CC[C@]3(CCC(=O)[C@H]32)[C@@H](C)[C@@H]1O [Lefamulin]
Compound 0.03 µM
  CXCL1 % reduction: -4.29%
  CXCL1 [pg/mL] Mean: 27 pg/mL
  CXCL2 % reduction: 3%
  CXCL2 [pg/mL] Mean: 31653 pg/mL
  MMP9 % reduction: 2.7%
  MMP9 [pg/mL] Mean: 939 pg/mL
Compound 0.1 µM
  CXCL1 % reduction: 0.477%
  CXCL1 [pg/mL] Mean: 25 pg/mL
  CXCL2 % reduction: 7%
  CXCL2 [pg/mL] Mean: 30382 pg/mL
  MMP9 % reduction: 16%
  MMP9 [pg/mL] Mean: 819 pg/mL
Compound 0.3 µM
  CXCL1 % reduction: -4.29%
  CXCL1 [pg/mL] Mean: 27 pg/mL
  CXCL2 % reduction: 0.626%
  CXCL2 [pg/mL] Mean: 32419 pg/mL
  MMP9 % reduction: 14%
  MMP9 [pg/mL] Mean: 840 pg/mL
Compound 1 µM
  CXCL1 % reduction: -0.703%
  CXCL1 [pg/mL] Mean: 26 pg/mL
  CXCL2 % reduction: -10%
  CXCL2 [pg/mL] Mean: 35898 pg/mL
  MMP9 % reduction: 2.38%
  MMP9 [pg/mL] Mean: 942 pg/mL
Compound 3 µM
  CXCL1 % reduction: -7.61%
  CXCL1 [pg/mL] Mean: 28 pg/mL
  CXCL2 % reduction: -7%
  CXCL2 [pg/mL] Mean: 34917 pg/mL
  MMP9 % reduction: 7%
  MMP9 [pg/mL] Mean: 900 pg/mL
Compound 10 µM
  CXCL1 % reduction: -36%
  CXCL1 [pg/mL] Mean: 35 pg/mL
  CXCL2 % reduction: -7%
  CXCL2 [pg/mL] Mean: 34821 pg/mL
  MMP9 % reduction: 14%
  MMP9 [pg/mL] Mean: 838 pg/mL
Compound 30 µM
  CXCL1 % reduction: -238%
  CXCL1 [pg/mL] Mean: 87 pg/mL
  CXCL2 % reduction: -16%
  CXCL2 [pg/mL] Mean: 37862 pg/mL
  MMP9 % reduction: 60%
  MMP9 [pg/mL] Mean: 423 pg/mL
Compound 100 µM
  CXCL1 % reduction: -827%
  CXCL1 [pg/mL] Mean: 237 pg/mL
  CXCL2 % reduction: -16%
  CXCL2 [pg/mL] Mean: 37744 pg/mL
  MMP9 % reduction: 96%
  MMP9 [pg/mL] Mean: 91 pg/mL
J774.2 macrophages
  IL-6 and IL-1β levels in supernatant: trend toward reduction
J774.2 mouse macrophages, concentrations tested (0.03 to 10 μM shown)
  levels of the measured LPS-induced cytokines, chemokines, or MMP-9 in supernatants: little to no reduction
0.03 µM
  CCl2, % reduction: 1.79%
  CCl2, Mean: 35400 pg/mL
  GM-CSF % reduction: 52%
  GM-CSF Mean: 672 pg/mL
  IL-1β % reduction: -26%
  IL-1β Mean: 241 pg/mL
  IL-6 % reduction: -14%
  IL-6 Mean: 88112 pg/mL
  TNF-α % reduction: -16%
  TNF-α Mean: 1587 pg/mL
  CCl2: 33453 pg/mL and 37346.9 pg/mL
  CXCL1: 25.7 pg/mL and 27.7 pg/mL
  GM-CSF: 625.6 pg/mL and 719.3 pg/mL
  IL-1β: 233.691 pg/mL and 247.723 pg/mL
  IL-6: 83483 pg/mL and 92741 pg/mL
  TNF-α: 1586.9 pg/mL and 1587.5 pg/mL
0.1 µM
  CCl2, % reduction: 8%
  CCl2, Mean: 33260 pg/mL
  GM-CSF % reduction: 50%
  GM-CSF Mean: 691 pg/mL
  IL-1β % reduction: -10%
  IL-1β Mean: 209 pg/mL
  IL-6 % reduction: -11%
  IL-6 Mean: 85917 pg/mL
  TNF-α % reduction: -16%
  TNF-α Mean: 1579 pg/mL
  CCl2: 30882.1 pg/mL and 35637.1 pg/mL
  CXCL1: 26.3 pg/mL and 24.7 pg/mL
  GM-CSF: 718.9 pg/mL and 663.8 pg/mL
  IL-1β: 208.032 pg/mL and 210.141 pg/mL
  IL-6: 86925 pg/mL and 84909 pg/mL
  TNF-α: 1571.9 pg/mL and 1586.9 pg/mL
0.3 µM
  CCl2, % reduction: 0.431%
  CCl2, Mean: 35870 pg/mL
  GM-CSF % reduction: 54%
  GM-CSF Mean: 647 pg/mL
  IL-1β % reduction: -6%
  IL-1β Mean: 202 pg/mL
  IL-6 % reduction: -13%
  IL-6 Mean: 87246 pg/mL
  TNF-α % reduction: -8.54%
  TNF-α Mean: 1483 pg/mL
  CCl2: 32973.5 pg/mL and 38766.3 pg/mL
  CXCL1: 24.9 pg/mL and 28.5 pg/mL
  GM-CSF: 644.4 pg/mL and 648.8 pg/mL
  IL-1β: 202.166 pg/mL and 201.189 pg/mL
  IL-6: 86199 pg/mL and 88294 pg/mL
